Laboratory results reported in US8865911B2, “Compounds and their use as BACE inhibitors” (Astrazeneca AB, priority 2010, dated 2014).

Target: human β-Secretase (Homo sapiens (Human), UniProt P56817)
Assay: TR-FRET assay
Format: biochemical
Settings: sBACE-Fc, substrate (Europium)CEVNLDAEFK(Qsy7) 100 nM, pH4.5, 15 minutes at r.t.
Description: The β-secretase enzyme used in the TR-FRET is prepared as follows: The cDNA for the soluble part of the human β-Secretase (AA 1-AA 460) was cloned using the ASP2-Fc10-1-IRES-GFP-neoK mammalian expression vector. The gene was fused to the Fc domain of IgG1 (affinity tag) and stably cloned into HEK 293 cells.
The robotic systems Biomek FX and Velocity 11 were used for all liquid handling and the enzyme and substrate solutions were kept on ice until they were placed in the robotic system. Enzyme (9 μl) was added to the plate then 1 μl of compound in dimethylsulphoxide was added, mixed and pre-incubated for 10 minutes. Substrate (10 μl) was then added, mixed and the reaction proceeded for 15 minutes at r.t. The reaction was stopped with the addition of Stop solution (7 μl, NaAcetate, pH 9). […] The dimethylsulphoxide control, instead of test compound, defined the 100% activity level and 0% activity was defined by wells lacking enzyme (replaced with reaction buffer).

Chain of human β-Secretase (P56817 22-460): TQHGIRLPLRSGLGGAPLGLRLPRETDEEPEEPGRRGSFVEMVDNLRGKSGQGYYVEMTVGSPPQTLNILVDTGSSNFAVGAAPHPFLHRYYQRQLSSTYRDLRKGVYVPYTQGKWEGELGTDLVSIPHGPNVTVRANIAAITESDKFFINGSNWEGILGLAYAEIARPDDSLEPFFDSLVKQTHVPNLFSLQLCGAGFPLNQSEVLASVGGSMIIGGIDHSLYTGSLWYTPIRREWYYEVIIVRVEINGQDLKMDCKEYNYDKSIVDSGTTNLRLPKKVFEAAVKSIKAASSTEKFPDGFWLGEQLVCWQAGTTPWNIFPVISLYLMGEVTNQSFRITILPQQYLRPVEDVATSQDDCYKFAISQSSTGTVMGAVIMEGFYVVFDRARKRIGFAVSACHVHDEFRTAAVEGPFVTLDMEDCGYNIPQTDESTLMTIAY

IC50 [nM]	IC50 in TR-FRET assay	Structure (SMILES)
	inactive	CC1=NC2(CC(C3CCOC(C)(C)C3)Oc3ccc(Br)cc32)N=C1N (mixture of isomers) [Example 49 Isomeric mixture 2, 6-Bromo-2-(2,2-dimethyltetrahydro-2H-pyran-4-yl)-5′-methyl-spiro[chromane-4,2′-imidazole]-4′-amine]
100		CC1=NC2(CC(C3CCOC(C)(C)C3)Oc3ccc(-c4cccc(Cl)c4)cc32)N=C1N (racemic) [Example 50 Isomeric mixture 1, 6-(3-Chlorophenyl)-2-(2,2-dimethyltetrahydro-2H-pyran-4-yl)-5′-methylspiro[chroman-4,2′-imidazol]-4′-amine]
22		CC1=N[C@]2(N=C1N)c1cc(-c3cc(F)cc(C#N)c3)ccc1C[C@]21CC[C@@H](OC(F)F)CC1 (racemic) [Example 105, 3-[(1r,4r)-4″-Amino-4-(difluoromethoxy)-5″-methyl-3′H-dispiro[cyclohexane-1,2′-indene-1′,2″-imidazol]-6′-yl]-5-fluorobenzonitrile]
6610		CC1=NC2(N=C1N)c1cc(Br)ccc1CC21CCC1 (stereo not drawn) [Example 54, 6′-Bromo-5″-methyl-3′H-dispiro[cyclobutane-1,2′-indene-1′,2″-imidazol]-4″-amine]
2610		CC1=NC2(N=C1N)c1cc(C#CC(C)(C)C)ccc1CC21CCC1 (stereo not drawn) [Example 59, 6′-(3,3-Dimethylbut-1-yn-1-yl)-5″-methyl-3′H-dispiro[cyclobutane-1,2′-indene-1′,2″-imidazol]-4″-amine]
89		CC#Cc1cncc(-c2ccc3c(c2)C2(N=C(C)C(N)=N2)[C@]2(CC[C@H](OC)CC2)C3)c1C (stereo partly drawn) [Example 63, (1r,4r)-4-Methoxy-5″-methyl-6′-[4-methyl-5-(prop-1-yn-1-yl)pyridin-3-yl]-3′H-dispiro[cyclohexane-1,2′-indene-1′,2″-imidazol]-4″-amine]
401		CCC1=NC2(N=C1N)c1cc(Br)ccc1C[C@]21CC[C@@H](OC)CC1 (stereo partly drawn) [Example 64, (1r,4r)-6′-Bromo-5″-ethyl-4-methoxy-3′H-dispiro[cyclohexane-1,2′-indene-1′,2″-imidazol]-4″-amine]
23		COCc1cc(F)cc(-c2ccc3c(c2)C2(N=C(C)C(N)=N2)[C@]2(CC[C@H](OC)CC2)C3)c1 (stereo partly drawn) [Example 81, (1r,4r)-6′-[3-Fluoro-5-(methoxymethyl)phenyl]-4-methoxy-5″-methyl-3′H-dispiro[cyclohexane-1,2′-indene-1′,2″-imidazol]-4″-amine]
19.8		CO[C@H]1CC[C@]2(CC1)Cc1ccc(-c3cccc(F)c3F)cc1[C@@]21N=C(C)C(N)=N1 [Example 101]
21		CC1=NC2(N=C1N)c1cc(-c3cc(F)cc(F)c3)ccc1C[C@]21CC[C@@H](OC(F)F)CC1 (stereo partly drawn) [Example 109, (1r,4r)-4-(Difluoromethoxy)-6′-(3,5-difluorophenyl)-5″-methyl-3′H-dispiro[cyclohexane-1,2′-indene-1′,2″-imidazol]-4″-amine]
51		CC#Cc1cncc(-c2ccc3c(c2)C2(N=C(C)C(N)=N2)[C@]2(CC[C@](C)(OC)CC2)C3)c1 (stereo partly drawn) [Example 111, (1r,4r)-4-Methoxy-4,5″-dimethyl-6′-[5-(prop-1-yn-1-yl)pyridin-3-yl]-3′H-dispiro[cyclohexane-1,2′-indene-1′,2″-imidazol]-4″-amine]
632		CC1=NC2(N=C1N)c1cc(-c3cc(F)cc(C#N)c3)ccc1CC21CCC(=O)CC1 (stereo not drawn) [Example 115, 3-(4″-Amino-5″-methyl-4-oxodispiro[cyclohexane-1,2′-[1H]indene-1′(3′H),2″-[2H]imidazol]-6′-yl)-5-fluorobenzonitrile]
2610		CC1=NC2(N=C1N)c1cc(Br)ccc1CC21CCC(C(F)F)CC1 (stereo not drawn) [Example 128, 6′-Bromo-4-(difluoromethyl)-5″-methyl-3′H-dispiro[cyclohexane-1,2′-indene-1′,2″-imidazol]-4″-amine]

Further lines, the compound ahead of its results:

Structure (SMILES)	IC50 [nM]	IC50 in TR-FRET assay
CC1=NC2(CC(C3CCOC(C)(C)C3)Oc3ccc(Br)cc32)N=C1N (mixture of isomers) [Example 49 Isomeric mixture 1, 6-Bromo-2-(2,2-dimethyltetrahydro-2H-pyran-4-yl)-5′-methyl-spiro[chromane-4,2′-imidazole]-4′-amine]	10	
CC1=NC2(CC(C3CCCOC3)Oc3ccc(Br)cc32)N=C1N (single isomer, unassigned) [Example 47 Isomer 1, 6-Bromo-5′-methyl-2-(tetrahydro-2H-pyran-3-yl)spiro[chromane-4,2′-imidazole]-4′-amine]		inactive
CC1=NC2(CC(C3CCCOC3)Oc3ccc(Br)cc32)N=C1N (single isomer, unassigned) [Example 47 Isomer 2, 6-Bromo-5′-methyl-2-(tetrahydro-2H-pyran-3-yl)spiro[chromane-4,2′-imidazole]-4′-amine]	1030	
CC1=NC2(CC(C3CCCOC3)Oc3ccc(Br)cc32)N=C1N (single isomer, unassigned) [Example 47 Isomer 3, 6-Bromo-5′-methyl-2-(tetrahydro-2H-pyran-3-yl)spiro[chromane-4,2′-imidazole]-4′-amine]		inactive
CC1=NC2(CC(C3CCCOC3)Oc3ccc(Br)cc32)N=C1N (single isomer, unassigned) [Example 47 Isomer 4, 6-Bromo-5′-methyl-2-(tetrahydro-2H-pyran-3-yl)spiro[chromane-4,2′-imidazole]-4′-amine]	65300	
CC1=NC2(CC(C3CCCOC3)Oc3ccc(Br)cc32)N=C1N (single isomer, unassigned) [Example 47 Isomer 5, 6-Bromo-5′-methyl-2-(tetrahydro-2H-pyran-3-yl)spiro[chromane-4,2′-imidazole]-4′-amine]	19800	
CC1=NC2(CC(C3CCCOC3)Oc3ccc(Br)cc32)N=C1N (single isomer, unassigned) [Example 47 Isomer 6, 6-Bromo-5′-methyl-2-(tetrahydro-2H-pyran-3-yl)spiro[chromane-4,2′-imidazole]-4′-amine]	1380	
CC1=NC2(CC(C3CCCOC3)Oc3ccc(Br)cc32)N=C1N (single isomer, unassigned) [Example 47 Isomer 7, 6-Bromo-5′-methyl-2-(tetrahydro-2H-pyran-3-yl)spiro[chromane-4,2′-imidazole]-4′-amine]		inactive
CC1=NC2(CC(C3CCCOC3)Oc3ccc(Br)cc32)N=C1N (single isomer, unassigned) [Example 47 Isomer 8, 6-Bromo-5′-methyl-2-(tetrahydro-2H-pyran-3-yl)spiro[chromane-4,2′-imidazole]-4′-amine]	8100	
CC1=NC2(CCOc3ccc(-c4cc(Cl)cc(Cl)c4)cc32)N=C1N (stereo not drawn) [Example 1, 6-(3,5-Dichlorophenyl)-5′-methylspiro[chroman-4,2′-imidazol]-4′-amine]	157	
COc1ccc(OC)c(-c2ccc3c(c2)C2(CCO3)N=C(C)C(N)=N2)c1 (stereo not drawn) [Example 5, 6-(2,5-Dimethoxyphenyl)-5′-methylspiro[chroman-4,2′-imidazol]-4′-amine]	3640	
COc1ccc(C)cc1-c1ccc2c(c1)C1(CCO2)N=C(C)C(N)=N1 (stereo not drawn) [Example 10, 6-(2-Methoxy-5-methylphenyl)-5′-methylspiro[chroman-4,2′-imidazol]-4′-amine]	6850	
CC1=NC2(CCOc3ccc(-c4cc(C)ccc4F)cc32)N=C1N (stereo not drawn) [Example 11, 6-(2-Fluoro-5-methylphenyl)-5′-methylspiro[chroman-4,2′-imidazol]-4′-amine]	1980	
CC1=NC2(CCOc3ccc(NC(=O)c4ccc(Cl)cn4)cc32)N=C1N (stereo not drawn) [Example 13a, N-(4′-Amino-5′-methylspiro[chroman-4,2′-imidazole]-6-yl)-5-chloropicolinamide]	1300	
CC#CCOc1ccc(C(=O)Nc2ccc3c(c2)C2(CCO3)N=C(C)C(N)=N2)nc1 (stereo not drawn) [Example 13d, N-(4′-amino-5′-methylspiro[chroman-4,2′-imidazole]-6-yl)-5-(but-2-ynyloxy)picolinamide]	112	
CC1=NC2(CCOc3ccc(NC(=O)c4ccc(C)s4)cc32)N=C1N (stereo not drawn) [Example 13f, N-(4′-Amino-5′-methylspiro[chroman-4,2′-imidazole]-6-yl)-5-methylthiophene-2-carboxamide]	6460	
CC1=NC2(CCOc3ccc(NC(=O)c4ncc(Cl)cc4Cl)cc32)N=C1N (stereo not drawn) [Example 13i, N-(4′-Amino-5′-methylspiro[chroman-4,2′-imidazole]-6-yl)-3,5-dichloropicolinamide]	560	
CC1=NC2(N=C1N)c1cc(-c3cccc(Cl)c3)ccc1CC21CCOCC1 (stereo not drawn) [Example 26a, 6′-(3-Chlorophenyl)-5-methyl-2″,3″,5″,6″-tetrahydro-3′H-dispiro[imidazole-2,1′-indene-2′,4″-pyran]-4-amine]	100	
CC1=NC2(N=C1N)c1cc(-c3ccc(F)c(Cl)c3)ccc1CC21CCOCC1 (stereo not drawn) [Example 26c, 6′-(3-Chloro-4-fluorophenyl)-5-methyl-2″,3″,5″,6″-tetrahydro-3′H-dispiro[imidazole-2,1′-indene-2′,4″-pyran]-4-amine]	145	
CC1=NC2(N=C1N)c1cc(NC(=O)c3ccc(Cl)cn3)ccc1CC21CCC(F)(F)CC1 (stereo not drawn) [Example 28d, N-(4″-Amino-4,4-difluoro-5″-methyl-3′H-dispiro[cyclohexane-1,2′-indene-1′,2″-imidazol]-6′-yl)-5-chloropyridine-2-carboxamide]	408	
